Laboratory results as given in US7230028B2, “Dimeric compounds and their use as anti-viral agents” (priority 2001, dated 2007).
Converted amounts (≈) assume the structure as drawn. “And” between values parts separate entries of the source, which are not always exact repeats. Identical values can stand only once.

Legend:
[1] = tested on: A/New Caledonia/20/99 BVLV008 (H1N1); assay: Plaque reduction assay (PRA) in MDCK cells; format: cell-based; details: for EC50 PRA A/New: plaque reduction, A/New Caledonia/20/99 (H1N1)
[2] = tested on: A/Victoria/3/75 BVLV017 (H3N2); assay: Plaque reduction assay (PRA) in MDCK cells; format: cell-based; details: Influenza A virus, H3N2, MDCK, read-out: EC50 PRA A/Vic, plaque reduction, A/Victoria/3/75 (H3N2)
[3] = tested on: A/Panama/2007/99 BVLV008 (H3N2); assay: Plaque reduction assay (PRA) in MDCK cells; format: cell-based; details: for EC50 PRA A/Pan: plaque reduction, A/Panama/2007/99 (H3N2)
[4] = tested on: A/Sydney/5/97 BVLV015 (H3N2); assay: Plaque reduction assay (PRA) in MDCK cells; format: cell-based, influenza A H3N2; details: A/Sydney/5/97 (H3N2)
Method: (§1) Madin Darby Canine Kidney (MDCK) cells are seeded into six well tissue culture plates and grown to confluency via standard methods. Influenza viruses are diluted in a minimal volume of phosphate buffered saline supplemented with 0.2% bovine serum albumin to yield an estimated titre of 50–100 plaque forming units (pfu) per well. After adsorption to the MDCK cells for one hour at 37° C. in a 5% CO2 atmosphere the viral inocula is aspirated and replaced with viral growth media (minimal Eagle's media supplemented with BSA, trypsin and insulin/transferrin/selenium at optimal concentrations) containing sufficient agar or agarose (generally 1–2%) to cause the media to gel at room temperature and at 37° C. in a 5% CO2 atmosphere until plaques develop (generally 2–4 days). Plaques can be visualised with a suitable stain (e.g. 0.4% crystal violet in formal saline) before counting.

[5] = tested on: B/Hong Kong/5/72 BVLV012; assay: Plaque reduction assay (PRA) in MDCK cells; format: cell-based, influenza B
Method: as §1

[6] = tested on: A/WSN/33 BVLV09 (H1N1); assay: Plaque reduction assay (PRA) in MDCK cells; format: cell-based, influenza A H1N1; details: A/WSN/33 (H1N1)
Method: as §1

[7] = tested on: A/Bayern/7/95 BVL006 (H1N1); assay: Plaque reduction assay (PRA) in MDCK cells; format: cell-based, influenza A H1N1; details: A/Bayern/7/95 (H1N1)
Method: as §1

[8] = tested on: B/Harbin/7/95 BVLV008; assay: Plaque reduction assay (PRA) in MDCK cells; format: cell-based; details: Influenza B virus, read-out: EC50 PRA B/Harb
Method: as §1

[9] = Rat lung retention assay (intra-tracheal dosing); format: in vivo; details: for Ratio Mean (lung) (cmpd)/PCT AU01/01128 compound 3: rat, in vivo; for Ratio Mean (lung) (cmpd)/PCT AU01/01128 compound 3 / (cmpd): 0.1 mg/kg; for Mean (cmpd) / (cmpd): rat lung, 0.1 mg/kg intra-tracheal; for (cmpd): individual animal, bis(trifluoroacetic acid salt)
Method: Rodents are anaesthetised and dosed with compound of interest by the intra-tracheal route at a dose volume of 0.8 ml/kg. The rodent is then held in the vertical position until full recovery is achieved. […] Any analytical method suitable for detection of this type of compound may be used. The time at which levels of compound fall below the sensitivity of the analytical techniques identified will determine the residency time of the compound in lung tissue.
Please note that all experiments included a co-dosed internal standard, namely compound 3 of International Patent Publication No. WO 02/20514, to permit comparison. The data are expressed as a ratio with respect to this compound, the structure of which is shown below.

[10] = tested on: Influenza B/Harbin/7/95; assay: Cytopathic effect (CPE) assay, inhibition of influenza virus replication in MDCK cells; format: cell-based
[11] = tested on: B/Victoria/1/67; assay: Plaque reduction assay (PRA) in MDCK cells; format: cell-based, influenza B; details: bis(trifluoroacetic acid salt)
[12] = tested on: B/Yamanashi/166/98 BVLV007; assay: Plaque reduction assay (PRA) in MDCK cells; format: cell-based; details: plaque reduction, B/Yamanashi/166/98
[13] = tested on: Influenza A/Sydney/5/97; assay: Cytopathic effect (CPE) assay, inhibition of influenza virus replication in MDCK cells; format: cell-based; details: up to 72 hours, MTT

**Q.** Which EC50 ([1]; Influenza A virus, H1N1, MDCK, read-out: EC50 PRA A/New, plaque reduction, A/New Caledonia/20/99 (H1N1)) does the source give for `CC(=O)N[C@H]1[C@H]([C@H](O)[C@H](O)CO)OC(C(=O)O)=C[C@@H]1NC(=N)N` [Compound A, 4-guanidino-2-deoxy-2,3-dehydro-N-acetylneuraminic acid] here?
**A.** Its EC50 is 0.27 ng/mL (≈ 0.812 nM).

**Q.** What about the “EC50 PRA A/New” value [1] of the same molecule?
**A.** Its value is 0.23 ng/mL (≈ 0.692 nM).

**Q.** And the EC50 [2]?
**A.** Its EC50 is 5.5 ng/mL (≈ 16.6 nM).

**Q.** What about the EC50 ([3]; Influenza A virus, H3N2, MDCK, read-out: EC50 PRA A/Pan, plaque reduction, A/Panama/2007/99 (H3N2)) of the same molecule?
**A.** The EC50 was 2.7 ng/mL (≈ 8.12 nM).

**Q.** What about the “EC50 PRA A/Pan” value [3] of the same molecule?
**A.** The value was 3 ng/mL (≈ 9.03 nM).

**Q.** And the EC50 ([4]; Influenza A virus, MDCK, read-out: EC50 PRA A/Syd)?
**A.** Its EC50 is 2.4 ng/mL (≈ 7.22 nM).

**Q.** And the EC50 ([5]; Influenza B virus, MDCK, read-out: EC50 PRA B/HongK)?
**A.** The EC50 was 21 ng/mL (≈ 63.2 nM).

**Q.** What about the “EC50 PRA A/WSN” value [6] of the same molecule?
**A.** Its value is > 100 ng/mL.

**Q.** What about the EC50 ([6]; Influenza A virus, MDCK) of the same molecule?
**A.** The EC50 was 56 ng/mL (≈ 169 nM).

**Q.** And the EC50 ([7]; Influenza A virus, MDCK, read-out: EC50 PRA A/Bay)?
**A.** The EC50 was 35 ng/mL (≈ 105 nM).

**Q.** What about the EC50 [8] of the same molecule?
**A.** The EC50 was 0.19 ng/mL (≈ 0.572 nM).

**Q.** And the “Ratio Mean (lung) (cmpd)/PCT AU01/01128 compound 3” value ([9]; 48 h)?
**A.** Its value is 0.26.

**Q.** What about the “Ratio Mean (lung) (cmpd)/PCT AU01/01128 compound 3” value ([9]; 168 h) of the same molecule?
**A.** The value was 0.08.

**Q.** Which “EC50 PRA A/New” value [1] does the source give for `CC(=O)N[C@H]1[C@H]([C@H](OC(=O)NCCCCCCCCCCCCCCNC(=O)O[C@@H]([C@@H]2OC(C(=O)O)=C[C@H](NC(=N)N)[C@H]2NC(C)=O)[C@H](O)CO)[C@H](O)CO)OC(C(=O)O)=C[C@@H]1NC(=N)N.O=C(O)C(F)(F)F.O=C(O)C(F)(F)F` [Example 5] here?
**A.** The value was <0.0001 ng/mL.

**Q.** What about the “ID50 B/Harbin/7/95” value ([10]; molar) of the same molecule?
**A.** Its value is 0.26 M.

**Q.** And the “ID50 B/Harbin/7/95” value ([10]; up to 72 hours, MTT)?
**A.** The value was 0.0003 µg/mL.

**Q.** And the “EC50 PRA B/Vic” value [11]?
**A.** The value was 0.1 ng/mL.

**Q.** And the “EC50 PRA A/Pan” value [3]?
**A.** Its value is 0.032 ng/mL.

**Q.** And the “EC50 PRA A/Syd” value [4]?
**A.** Its value is 0.032 ng/mL.

**Q.** What about the “EC50 PRA B/Yam” value [12] of the same molecule?
**A.** The value was <0.0001 ng/mL.

**Q.** What about the “EC50 PRA B/HongK” value [5] of the same molecule?
**A.** Its value is 0.37 ng/mL.

**Q.** And the “ID50 A/Sydney/5/97” value [13]?
**A.** The value was 0.1 ng/mL.

**Q.** And the “EC50 PRA A/WSN” value [6]?
**A.** The value was <0.0001 ng/mL.

**Q.** What about the “EC50 PRA A/Bay” value [7] of the same molecule?
**A.** The value was <0.0001 ng/mL.

**Q.** And the “Mean (cmpd)” value ([9]; 48 hrs)?
**A.** Its value is 4803 ng/g.

**Q.** What about the “Mean (cmpd)” value ([9]; 168 hrs) of the same molecule?
**A.** Its value is 1798 ng/g.

**Q.** And the “(cmpd)” value ([9]; 48 hrs)?
**A.** Its value is 3044 ng/g and 6268 ng/g and 5097 ng/g.

**Q.** What about the “(cmpd)” value ([9]; 168 hrs) of the same molecule?
**A.** The value was 2750 ng/g and 1255 ng/g and 1388 ng/g.
